From patent US20060234997A1, “Tetrahydro-pyridoazepin-8-ones and related compounds for the treatment of schizophrenia” (WARNER-LAMBERT COMPANY LLC, priority 2005, published 2006)
Where a name gives a salt, the structure may show the parent alone.

Legend:
[1] = biological target: T1, Dopamine D2 receptor (hD2L) (Homo sapiens, UniProt P14416); experiment: Dopamine D2 Receptor Binding Assay ([3H]spiperone, CHO-hD2L membranes); settings: [3H]spiperone 0.4 nM, membrane preparation from CHO-hD2L cells
T1 construct: expressed in transfected cells; host or cells: CHO cells (CHO-hD2L)
T1 sequence (P14416 whole entry): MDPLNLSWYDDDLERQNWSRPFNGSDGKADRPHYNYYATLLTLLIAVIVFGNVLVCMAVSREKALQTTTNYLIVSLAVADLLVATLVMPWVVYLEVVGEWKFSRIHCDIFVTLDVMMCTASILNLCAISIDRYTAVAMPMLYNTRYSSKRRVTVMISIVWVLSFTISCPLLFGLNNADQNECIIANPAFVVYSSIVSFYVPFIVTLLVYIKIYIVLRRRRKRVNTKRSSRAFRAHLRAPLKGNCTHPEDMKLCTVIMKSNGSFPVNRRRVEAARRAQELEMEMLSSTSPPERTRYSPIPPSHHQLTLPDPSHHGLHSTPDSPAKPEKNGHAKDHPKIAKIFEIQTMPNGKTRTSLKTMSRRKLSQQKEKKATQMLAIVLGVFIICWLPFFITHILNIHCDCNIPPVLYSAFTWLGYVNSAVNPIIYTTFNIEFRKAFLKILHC
From the text: The ability of the novel compounds of this invention to bind to the dopamine D2 receptor can be determined using conventional radioligand receptor binding assays. All receptors can be heterologously expressed in cell lines and binding assays can be conducted in membrane preparations from the cell lines using procedures outlined below. IC50 concentrations can be determined by nonlinear regression of concentration-dependent reduction in specific binding. The Cheng-Prussoff equation can be used to convert the IC50 to Ki concentrations.
[^3H]Spiperone binding to a membrane preparation from CHO-hD2L cells was carried out in 250 μl of 50 mM Tris-HCl buffer containing 100 mM NaCl, 1 mM MgCl2 and 1% DMSO at pH 7.4. Duplicate samples containing (in order of addition) the test compounds, 0.4 nM [^3H]spiperone and approximately 12 μg protein were incubated for 120 minutes at room temperature. Bound radioligand was separated by rapid filtration under reduced pressure through Whatman GF/B glass fiber filters previously treated with 0.3% polyethyleneimine. Radioactivity retained on the filter is determined by liquid scintillation spectrophotometry.

Ki [1] [nM] | SMILES | melting point [°C]
 | O=C1NCCc2ccc(OCCCCN3CCN(c4cccc(Cl)c4Cl)CC3)nc2N1 (as salt: HCl) [Example 14, 2-{4-[4-(2,3-Dichloro-phenyl)-piperazin-1-yl]-butoxy}-5,6,7,9-tetrahydro-1,7,9-triaza-benzocyclohepten-8-one] | 197 to 199
 | O=C1NCCc2ccc(OCCCCN3CCN(c4cccc5ccccc45)CC3)nc2N1 (as salt: HCl) [Example 15, 2-[4-(4-Naphthalen-1-yl-piperazin-1-yl)-butoxy]-5,6,7,9-tetrahydro-1,7,9-triaza-benzocyclohepten-8-one] | 188 to 190
 | O=C1NCCc2ccc(OCCCCN3CCN(c4cccc5c4CCCC5)CC3)nc2N1 (as salt: HCl) [Example 16, 2-{4-[4-(5,6,7,8-Tetrahydro-naphthalen-1-yl)-piperazin-1-yl]-butoxy}-5,6,7,9-tetrahydro-1,7,9-triaza-benzocyclohepten-8-one] | 185 to 186
 | O=C1NCCc2ccc(OCCCCN3CCN(c4cccc5c4OCCC5)CC3)nc2N1 (as salt: HCl) [Example 17, 2-[4-(4-Chroman-8-yl-piperazin-1-yl)-butoxy]-5,6,7,9-tetrahydro-1,7,9-triaza-benzocyclohepten-8-one] | 154 to 156
 | O=C1NCCc2ccc(OCCCCN3CCN(c4cccc5ccc(F)cc45)CC3)nc2N1 (as salt: HCl) [Example 18, 2-{4-[4-(7-Fluoro-naphthalen-1-yl)-piperazin-1-yl]-butoxy}-5,6,7,9-tetrahydro-1,7,9-triaza-benzocyclohepten-8-one] | 234
 | CN1CCc2ccc(OCCCCN3CCN(c4cccc(Cl)c4Cl)CC3)cc2NC1=O [Example 25, 8-{4-[4-(2,3-Dichlorophenyl)piperazin-1-yl]butoxy}-3-methyl-1,3,4,5-tetrahydro-benzo[d][1,3]diazepin-2-one] | 139 to 140
 | O=C1NCCc2ccc(OCCCN3CCN(c4cccc(Cl)c4Cl)CC3)cc2N1 [Example 28, 8-{3-[4-(2,3-Dichlorophenyl)piperazin-1-yl]propoxy}-1,3,4,5-tetrahydrobenzo[d][1,3]diazepin-2-one] | 183 to 184
 | O=C1NCCc2ccc(OCCCCN3CCN(c4cccc(Cl)c4Cl)CC3)cc2N1 [Example 29, 8-{4-[4-(2,3-Dichlorophenyl)piperazin-1-yl]butoxy}-1,3,4,5-tetrahydrobenzo[d][1,3]diazepin-2-one] | 185 to 186
1.81 | O=C1NCCc2ccc(OCCCCN3CCN(c4cccc(C5CC5)n4)CC3)cc2N1 [Example 37] | 155 to 156
1.04 | COc1ccc2cccc(N3CCN(CCCOc4ccc5c(c4)NC(=O)NCC5)CC3)c2n1 [Example 41, 8-{3-[4-(2-Methoxy-quinolin-8-yl)-piperazin-1-yl]-propoxy}-1,3,4,5-tetrahydro-benzo[d][1,3]diazepin-2-one] | 
3.24 | O=C1NCCc2ccc(OCCCN3CCN(c4cccc5ccccc45)CC3)cc2N1 [Example 43, 8-[3-(4-Naphthalen-1-yl-piperazin-1-yl)-propoxy]-1,3,4,5-tetrahydro-benzo[d][1,3]diazepin-2-one] | 
5.44 | O=C1NCCc2ccc(OCCCN3CCN(c4cccc5ccc(F)cc45)CC3)cc2N1 [Example 44, 8-{3-[4-(7-Fluoro-naphthalen-1-yl)-piperazin-1-yl]-propoxy}-1,3,4,5-tetrahydro-benzo[d][1,3]diazepin-2-one] | 
 | CC1(C)CCC(=O)Nc2cc(OCCCN3CCN(c4cccc(Cl)c4Cl)CC3)ccc21 [Example 53, 8-{3-[4-(2,3-Dichlorophenyl)piperazin-1-yl]-propoxy}-5,5-dimethyl-1,3,4,5-tetrahydrobenzo[b]azepin-2-one] | 162 to 164
 | CC1(C)CCC(=O)Nc2cc(OCCCCN3CCN(c4cccc(Cl)c4Cl)CC3)ccc21 [Example 54, 8-{4-[4-(2,3-Dichlorophenyl)piperazin-1-yl]-butoxy}-5,5-dimethyl-1,3,4,5-tetrahydrobenzo[b]azepin-2-one] | 106 to 108
 | CC1(C)CCC(=O)Nc2cc(OCCCCCN3CCN(c4cccc(Cl)c4Cl)CC3)ccc21 [Example 55, 8-{5-[4-(2,3-Dichlorophenyl)piperazin-1-yl]-pentyloxy}-5,5-dimethyl-1,3,4,5-tetrahydrobenzo[b]azepin-2-one] | 128 to 130
 | CC1(C)CCc2ccc(OCCCCN3CCN(c4cccc(Cl)c4Cl)CC3)cc2NC1=O [Example 57, 8-{4-[4-(2,3-Dichlorophenyl)piperazin-1-yl]butoxy}-3,3-dimethyl-1,3,4,5-tetrahydrobenzo[b]azepin-2-one] | 110 to 112
9.38 | CC1(C)Cc2ccc(OCCCN3CCN(c4cccc5ccccc45)CC3)cc2NC(=O)N1 [Example 60, 4,4-Dimethyl-8-[3-(4-naphthalen-1-yl-piperazin-1-yl)-propoxy]-1,3,4,5-tetrahydro-benzo[d][1,3]diazepin-2-one] | 
9.49 | O=C1NCCc2ccc(/C=C/CCCN3CCN(c4cccc(Cl)c4Cl)CC3)cc2N1 [Example 64] | 219 to 220
4.47 | O=C1NCCc2ccc(CCCCCN3CCN(c4cccc(Cl)c4Cl)CC3)cc2N1 [Example 65] | 159 to 161
25 | CC1(C)CNC(=O)Nc2cc(CCCCCN3CCN(c4cccc(Cl)c4Cl)CC3)ccc21 [Example 67, 8-{5-[4-(2,3-Dichlorophenyl)piperazin-1-yl]pentyl}-5,5-dimethyl-1,3,4,5-tetrahydro-benzo[d][1,3]diazepin-2-one Methanesulfonic Acid] | 215 to 218
70.9 | CC1(C)CCC(=O)Nc2cc(/C=C/CCCN3CCN(c4cccc(Cl)c4Cl)CC3)ccc21 [Example 69] | 108 to 109
56.5 | CC1(C)CCC(=O)Nc2cc(CCCCCN3CCN(c4cccc(Cl)c4Cl)CC3)ccc21 [Example 70, 8-{5-[4-(2,3-Dichlorophenyl)piperazin-1-yl]pentyl}-5,5-dimethyl-1,3,4,5-tetrahydrobenzo[b]azepin-2-one Methanesulfonic Acid] | 168 to 170

SMILES | Ki [1] [nM] | melting point [°C]
O=C1NCCc2ccc(OCCCCN3CCN(c4cccc5c4CCC5)CC3)nc2N1 [Example 13, 2-[4-(4-Indan-4-yl-piperazin-1-yl)-butoxy]-5,6,7,9-tetrahydro-1,7,9-triaza-benzocyclohepten-8-one] | 0.59 | 70 to 72
O=C1NCCc2ccc(OCCCCN3CCN(c4cccc5c4OCC5)CC3)nc2N1 [Example 19, 2-{4-[4-(2,3-Dihydro-benzofuran-7-yl)-piperazin-1-yl]-butoxy}-5,6,7,9-tetrahydro-1,7,9-triaza-benzocyclohepten-8-one] | 0.4 | 72 to 73
O=C1NCCc2ccc(OCCCCN3CCN(c4cccc5c4OCCCO5)CC3)nc2N1 [Example 20, 2-{4-[4-(3,4-Dihydro-2H-benzo[b][1,4]dioxepin-6-yl)-piperazin-1-yl]-butoxy}-5,6,7,9-tetrahydro-1,7,9-triaza-benzocyclohepten-8-one] | 1 | 78 to 79
O=C1NCCc2ccc(OCCCCN3CCN(c4cccc5c(F)cccc45)CC3)cc2N1 [Example 40, 8-{4-[4-(5-Fluoro-naphthalen-1-yl)-piperazin-1-yl]-butoxy}-1,3,4,5-tetrahydro-benzo[d][1,3]diazepin-2-one] | 11.4 | 
O=C1NCCc2ccc(OCCCCN3CCN(c4cccc5cccc(F)c45)CC3)cc2N1 [Example 42, 8-{4-[4-(8-Fluoro-naphthalen-1-yl)-piperazin-1-yl]-butoxy}-1,3,4,5-tetrahydro-benzo[d][1,3]diazepin-2-one] | 2.32 | 
O=C1NCCc2ccc(OCCCCN3CCN(c4cccc5c4COCC5)CC3)cc2N1 [Example 45, 8-[4-(4-Isochroman-8-yl-piperazin-1-yl)-butoxy]-1,3,4,5-tetrahydro-benzo[d][1,3]diazepin-2-one] | 6.14 | 
CC1(C)Cc2ccc(OCCCCN3CCN(c4cccc5ccccc45)CC3)cc2NC(=O)N1 [Example 59, 4,4-Dimethyl-8-[4-(4-naphthalen-1-yl-piperazin-1-yl)-butoxy]-1,3,4,5-tetrahydro-benzo[d][1,3]diazepin-2-one] | 3 | 
